# From paper PMC6858451, “Rhesus Theta Defensin 1 Promotes Long Term Survival in Systemic Candidiasis by Host Directed Mechanisms” (Scientific Reports, 2019)
# “Also recorded” adds a separate entry of the source. Bridge positions count the residues as written; N and C are the ends. Peptide text beside a SMILES is read from it.
# What was measured:
# [1] = tested on: C. albicans SC5314 biofilms; test: Biofilm XTT metabolic assay; type: cell-based
# Method: The antifungal activities of RTD-1, caspofungin and fluconazole were evaluated against biofilms of C. albicans SC5314 and 53264 essentially as described by Pierce et al.[67]. Briefly, biofilms established for 0 h (preadhesion), 2 h (adherent), or 24 h (mature) were developed by adding 1 × 10^5 yeast cells in 50 or 100 µl of RPMI-1640 to wells of flat-bottom 96-well microtiter plates (Costar, Corning, NY). Fifty or 100 µl aliquots of serial 2-fold dilutions of peptide or antifungal drugs were added to wells in triplicate and incubated for 24 h or 48 h prior to analysis of biofilm metabolic activities. Concentrations of reagents used were as follows: RTD-1 - 0.09 – 100 µg/ml (0.05–48 µM), Fluco – 1–250 µg/ml (3.3–816.3 µM); Caspo- 0.003–8 µg/ml ([…]–7.3 µM). Analysis of the effect of each agent on Candida biofilms was performed using an XTT colorimetric assay. One hundred µl of 1 µM XTT/menadione added to each biofilm well, plates were incubated in the dark for 3 h at 37 °C, and 80 µl of supernatant was transferred to a new 96-well flat-bottom microtiter plate (Greiner Bio-one, Monroe, NC). Absorbance was measured at 490 nm on a SpectraMax® i3x (Molecular Devices). Readings were plotted as average of triplicates after subtracting the corresponding values for negative controls (XTT/menadione only).
# [2] = tested on: C. albicans 53264; test: Systemic MDR candidiasis model, survival and renal fungal burden; type: in vivo, CD-1 mice; conditions: for survival (log-rank): 1.8 × 10^7 blastospores i.v., 40 days
# Method: (as in Fig. 3d). CD-1, rather than BALB/c mice were used in the C. albicans 53264 challenge studies as this mouse strain was employed by Wiederhold et al. in the assessment of caspofungin efficacy against this pathogen. […] Fungal burdens were determined in kidneys of long term survivors in the RTD-1, Caspo, and Fluco-treated cohorts (euthanized at day 40) and from moribund mice from the survival study in Fig. 7a.
# (§1) BALB/c female mice (7–8 weeks old) and CD-1 female mice (4–5 weeks old) were obtained from Charles River Laboratories and allocated randomly in groups of five mice per cage. Mice were maintained on a 12 h light/dark cycle in thermostatically controlled rooms for the duration of the experiment. C. albicans inocula were prepared fresh each day from saturated cultures grown overnight in YPD medium, washed in sterile PBS, and fungi were counted with hemocytometer. Stock suspensions were prepared in sterile PBS. BALB/c mice were challenged with 2 × 10^6 CFU/ml wild-type C. albicans reference strain SC5314, while CD-1 mice were challenged with 1.8 × 10^7 CFU/ml (0.15–0.2 ml) C. albicans clinical isolate 53264 by i.v. injection into the lateral caudal tail vein using a 28 G 1/2 inch needle. Animals were treated by i.v., s.c., or i.p. routes immediately post-infection (p.i.) or 24 h p.i. with sterile saline (control), RTD-1, fluconazole, or caspofungin administered at the concentrations indicated in a 0.200 ml. Mice were weighted and monitored daily for general clinical condition. Mice were euthanized as approved by the USC IACUC and in compliance with the National Institutes of Health Guide for the Care and Use of Laboratory Animals. All experiments were repeated at least three times.
# (§2) To assess systemic fungal clearance, renal fungal burden was determined. Mice were euthanized at times indicated, and both kidneys were weighed, homogenized in 5 ml of sterile PBS, and serial dilutions of homogenate were plated on YPD agar plates and incubated at 30 °C for 2 days. CFU per gram of kidney was calculated.
# [3] = tested on: C. albicans 53264; test: Kinetics of candidacidal activity, liquid suspension assay; type: cell-based; conditions: PIPES-glucose buffer
# Method: (§3) Kinetics of RTD-1 candidacidal activity was determined at peptide concentrations ranging from 0 to 10 µg/ml using a liquid suspension assay described previously. Overnight cultures of C. albicans 53264 or 43001 were grown to mid-log phase in 5% yeast peptone dextrose broth (YPD) (Difco) at 30 °C. Approximately 2 × 10^6 CFU/ml were incubated with 0, 0.3, 1, 3 and 10 µg/ml RTD-1 or 10 µg/ml caspofungin, suspended in 10 mM PIPES, pH 7.4, plus 5 mM glucose (PG), in 96-well plates with shaking at 60 RPM at 37 °C. At timed intervals, samples were diluted 1:1000 fold into PG buffer and aliquots plated onto YPD agar plates (TekNova), and surviving organisms quantified by colony counting after incubation for 24 h at 30 °C.
# [4] = tested on: C. albicans 43001; test: as above; type: cell-based; conditions: PIPES-glucose buffer
# Method: as §3
# [5] = tested on: C. albicans SC5314; test: Systemic candidiasis model, survival and renal fungal burden; type: in vivo, BALB/c mice
# Method: The efficacy of RTD-1 in vivo was evaluated in an established model of systemic candidiasis using C. albicans SC5314. Both immunocompetent and immunosuppressed mouse models are employed in preclinical studies of systemic candidiasis. Since many of our preliminary studies employed the […] model, we conducted efficacy studies with RTD-1 and reference antifungal drugs in immunocompetent BALB/c mice. Mice were challenged i.v. with 3 × 10^5 blastospores at T = 0, which rapidly produces disseminated candidiasis and colonizes major organs in a manner resembling systemic candidiasis in humans. […] We analyzed the effect of a single 5 mg/kg dose of RTD-1 administered i.v., s.c., or i.p. immediately after i.v. fungal challenge, with i.p. saline as vehicle control. Fluco and Caspo, administered i.p. at 5 mg/kg, were used as drug comparators. […] In subsequent studies, antifungal agents were administered i.p. to circumvent potentially confounding effects resulting from treatment by the same route as infection, which was i.v. in all experiments.
# as §1, §2
# [6] = RTD-1 tolerability/toxicity in naive mice; type: in vivo, BALB/c mice
# Method: RTD-1 tolerability/toxicity was evaluated by i.p. dosing of naÏve BALB/c mice with RTD-1 at 5 mg/kg RTD-1 daily for 7 days, 20 mg/kg every other day for 10 days, and once at 50 mg/kg.
# [7] = tested on: C. albicans; conditions: planktonic cells; cited from earlier work
# Excerpt: RTD-1 is the prototype θ-defensin, the only known backbone cyclized polypeptides in the Animal Kingdom. All natural θ-defensin isoforms are 18-amino acid macrocycles stabilized by a six cysteine, tridisulfide core. […] As reported here and elsewhere, RTD-1 kills Candida ...
# [8] = 5 mg/kg i.p. once per day for 7 days beginning 24 h p.i.
# [9] = 5 mg/kg i.p. once a day for 7 days, first dose 24 h after infection, 30 d
# [10] = 3 µg/ml, by 30 min of incubation
compound,measurement,setting,value
"CC[C@H](C)C[C@H](C)CCCCCCCCC(=O)N[C@H]1C[C@@H](O)[C@@H](NCCN)NC(=O)[C@@H]2[C@@H](O)CCN2C(=O)[C@H]([C@H](O)CCN)NC(=O)[C@H]([C@H](O)[C@@H](O)c2ccc(O)cc2)NC(=O)[C@@H]2C[C@@H](O)CN2C(=O)[C@H]([C@@H](C)O)NC1=O [Caspo, caspofungin]",biofilm inhibition (XTT),[1]; 2- and 24 h biofilms,reduced at concentrations >2 µg/ml
same,survival (log-rank),[2]; [8],significantly (P < 0.0001) improved survival
same,"fungicidal activity, time-kill","[3]; 10 µg/ml, 0–60 min",very little activity
same,"fungicidal activity, time-kill","[4]; 10 µg/ml, 0–60 min",very little activity
same,survival,[5]; [9],markedly enhanced survival
same,survival,"[5]; single 5 mg/kg dose at T = 0 (RTD-1 i.v., s.c. or i.p.; Fluco, Caspo i.p.), 3 × 10^5 blastospores i.v., 30 days, vs saline, 5 mg/kg",effective in enhancing survival; also recorded: superior to RTD-1 and Fluco treatment
"CC[C@H](C)[C@@H]1NC(=O)[C@@H]2CSSC[C@H](NC(=O)[C@H](CCCNC(=N)N)NC(=O)[C@@H]3CSSC[C@H](NC1=O)C(=O)N[C@@H]([C@@H](C)O)C(=O)N[C@@H](CCCNC(=N)N)C(=O)NCC(=O)N[C@@H](Cc1ccccc1)C(=O)N3)C(=O)N[C@@H](CC(C)C)C(=O)N[C@H]1CSSC[C@H](NC(=O)[C@H](C(C)C)NC(=O)CNC(=O)[C@H](CCCNC(=N)N)NC(=O)[C@H](CCCNC(=N)N)NC1=O)C(=O)N[C@@H](CCCNC(=N)N)C(=O)N2 [RTD-1, Rhesus theta (θ) defensin-1] (cyclo(GFCRCLCRRGVCRCICTR); disulfide 3-16, 5-14, 7-12 (inferred); ring closure inferred)",biofilm inhibition (XTT),[1]; 2- and 24 h biofilms,much more effective than Fluco
same,biofilm inhibition (XTT),"[1]; pre-adhesion, 2 h adherent and 24 h mature biofilms","inhibited biofilms of drug sensitive SC5314 at each time point, but less effectively than Caspo"
same,survival endpoint analysis (χ2) at day 40 p.i.,[2]; [8],superior to Fluco (P = 0.01) and Caspo (P = 0.001)
same,survival (log-rank),[2]; [8],significantly (P < 0.0001) improved survival; also recorded: superior to Caspo (P = 0.029) but not Fluco
same,kidney fungal burden (CFU/g),"[2]; long term survivors, day 40, vs moribund saline controls",significantly (P = 4.1 × 10^−5) reduced fungal burden
same,"fungicidal activity, time-kill",[3]; [10],sterilized the incubation mixture
same,"fungicidal activity, time-kill",[4]; [10],sterilized the incubation mixture
same,survival,[5]; [9],"markedly enhanced survival; also recorded: more effective in enhancing survival than Fluco, and was nearly equivalent to Caspo"
same,kidneys with no culturable organisms detected,"[5]; long term survivors, day 30 p.i.",50%
same,kidney fungal burden (CFU/g),"[5]; long term survivors, day 30 p.i., treated i.p. at T = 0, vs moribund saline treated mice",markedly reduced kidney fungal burden; also recorded: substantially more effective than treatment with Fluco
same,survival,"[5]; single 5 mg/kg dose at T = 0 (RTD-1 i.v., s.c. or i.p.; Fluco, Caspo i.p.), 3 × 10^5 blastospores i.v., 30 days, vs saline",significantly enhanced survival regardless of the routes of administration
same,kidney fungal burden (CFU/g),"[5]; single 5 mg/kg i.p. at T = 0, by day 3 p.i., vs saline",markedly reduced fungal burden
same,survival,"[5]; single i.p. 5 mg/kg, administration delayed 24 h or 72 h (data not shown)",no survival enhancement
same,survival,"[5]; single i.p. 5 mg/kg, treatment delayed 1, 3 or 6 h after infection",enhanced survival compared to saline control
same,survival,"[5]; single i.p. dose 20 mg/kg at T = 0, vs saline",significantly accelerates death
same,survival,"[5]; single i.p. dose 10 and 20 mg/kg at T = 0, compared with 5 mg/kg Fluco",less effective than Fluco
same,survival,"[5]; single i.p. dose at T = 0, all doses of 0.1–20 mg/kg except 0.1 and 20 mg/kg, vs saline",enhanced survival significantly
same,tolerability,"[6]; i.p. 5 mg/kg daily for 7 days, 20 mg/kg every other day for 10 days, once 50 mg/kg, observation at least 14 days",tolerated RTD-1 dosing at all levels
same,toxicity,[6]; summary statement (Results),non-toxic
same,time to permeabilization of C. albicans to propidium iodide,[7],< 10 min
